{"source": "patent US20170114030A1", "about": "“COMPOSITION WITH HIGH CONTENT OF CYCLIC DIPEPTIDE” (SUNTORY HOLDINGS LIMITED, priority 2014, published 2017)", "key": {"NCI-H716 cells": {"tested_on": "NCI-H716 cells", "assay": "In vitro GLP-1 secretion-accelerating action (active GLP-1 ELISA)", "format": "cell-based", "details": "for Significant difference (p < 0.05) vs control group, amount of active GLP-1 secreted: 1 hour, Student's t-test; for Amount of active GLP-1 secreted (relative value to control group as 100), Average value: after 1 hour, group with no cyclic dipeptide = 100", "experimental": "(§1) In the Test Examples below, data were represented as average value±standard error. In Test Examples 1, 2, and 3, a Student's t-test was used for a statistical test, and in other Test Examples, one-way ANOVA was carried out for dispersion analysis followed by a multiple comparison test by using a Dunnet's test. […] All of these analyses were carried out by using an SPSS for Windows release 17.0 (manufactured by SPSS Inc.).\nAmong the cyclic dipeptides, 92 highly water-soluble cyclic dipeptides were used in the following experiment. In each well of a Poly-L-Lysine 96-well plate, NCI-H716 cells suspended in 100 μL of a DMEM (with 10% FBS, 2 mM glutamine, and 1% antibiotics added in advance) were seeded at 0.5×10^5 cells/well, and cultured in a CO2 incubator (manufactured by ESPEC CORP.) for 48 hours. After washing with PBS(+), 100 μL of a PBS(+) solution with each cyclic dipeptide at a final concentration of 10 mM and 10 μM of Sitagliptin phosphate added therein was added to the cells. After 1 hour, the resultant solution was recovered, and the amount of active GLP-1 in the solution was measured by using the ELISA kit. In the analysis, the amount of active GLP-1 for a group with no cyclic dipeptide added was defined as 100, and relative values thereto were used.\nIn each Table, cyclic dipeptides for which an in vitro active GLP-1 secretion-accelerating activity was found and was not found are listed."}, "plasma active GLP-1": {"tested_on": "plasma active GLP-1", "assay": "In vivo plasma active GLP-1 level-increasing action after oral administration", "design": "species or system mice", "details": "10 mg/kg orally; for Plasma active GLP-1 level (relative value to control group as 100), Average value: male C57/BL6J mice, blood after 30 minutes, 0.5% CMC-Na group = 100; for Significant difference (p < 0.05) vs control group, plasma active GLP-1 level: mice, 30 minutes, Student's t-test", "experimental": "as §1\nAmong the cyclic dipeptides, cyclic dipeptides for which an in vitro GLP-1 secretion-accelerating action was found and highly lipid-soluble cyclic dipeptides were used in the following experiment. Seven-week-old male C57/BL6J mice were purchased from CLEA Japan, Inc. for use, and they were subjected to an experiment after 1 week of a habituation period. Each animal was grown in an animal room with an air conditioning system (temperature: 23.5±1.0° C., humidity: 55±10 RH %, air ventilation: 12 to 15 times/hour, illumination: from 7:00 to 19:00/day).\nAfter the habituation period, the mice were subjected to 5.5 hours of food deprivation and 2 hours of water deprivation. Thereafter, a cyclic dipeptide dissolved or suspended in a 0.5% CMC-Na aqueous solution in 10 mg/kg was orally administered to each mouse forcibly. After 30 minutes, the blood was collected from the abdominal vena cava under anesthesia, and 1 μL of heparin sodium and 1 μL of 10 mM Sitagliptin phosphate were added to each collected blood, which was then subjected to centrifugation at 8000 rpm for 10 minutes to recover the plasma, and the plasma active GLP-1 level was measured by using the ELISA kit. In the analysis, the active GLP-1 level for a group administered with 0.5% CMC-Na aqueous solution was defined as 100, and relative values thereto were used.\nIn each Table, cyclic dipeptides for which an in vivo plasma active GLP-1 level-increasing action was found and was not found are listed."}, "[1]": {"details": "Experiment 2, cyclic dipeptide 10 mM with 10 μM Sitagliptin phosphate"}, "[2]": {"details": "Experiment 4, cyclic dipeptide 10 mM with 10 μM Sitagliptin phosphate"}}}
{"smiles": "C[C@@H]1NC(=O)[C@H](CO)NC1=O", "note": "[compound 25]", "values": [{"measurement": "Significant difference (p < 0.05) vs control group, amount of active GLP-1 secreted", "setting": "NCI-H716 cells; Experiment 1, 10 mM", "value": "Yes"}, {"measurement": "Amount of active GLP-1 secreted (relative value to control group as 100), Average value", "setting": "NCI-H716 cells; Experiment 1, cyclic dipeptide 10 mM with 10 μM Sitagliptin phosphate", "value": 257}, {"measurement": "Plasma active GLP-1 level (relative value to control group as 100), Average value", "setting": "plasma active GLP-1; Experiment 1", "value": 158}, {"measurement": "Significant difference (p < 0.05) vs control group, plasma active GLP-1 level", "setting": "plasma active GLP-1; Experiment 1", "value": "Yes"}]}
{"smiles": "O=C1N[C@@H](Cc2c[nH]c3ccccc23)C(=O)N[C@H]1Cc1c[nH]cn1", "note": "[compound 60]", "values": [{"measurement": "Significant difference (p < 0.05) vs control group, amount of active GLP-1 secreted", "setting": "NCI-H716 cells; Experiment 2, 10 mM", "value": "Yes"}, {"measurement": "Amount of active GLP-1 secreted (relative value to control group as 100), Average value", "setting": "NCI-H716 cells; [1]", "value": 260}, {"measurement": "Plasma active GLP-1 level (relative value to control group as 100), Average value", "setting": "plasma active GLP-1; Experiment 1", "value": 129}, {"measurement": "Significant difference (p < 0.05) vs control group, plasma active GLP-1 level", "setting": "plasma active GLP-1; Experiment 1", "value": "No"}]}
{"smiles": "NCCCC[C@@H]1NC(=O)[C@H](Cc2ccccc2)NC1=O", "note": "[compound 63]", "values": [{"measurement": "Significant difference (p < 0.05) vs control group, amount of active GLP-1 secreted", "setting": "NCI-H716 cells; Experiment 2, 10 mM", "value": "Yes"}, {"measurement": "Amount of active GLP-1 secreted (relative value to control group as 100), Average value", "setting": "NCI-H716 cells; [1]", "value": 220}, {"measurement": "Plasma active GLP-1 level (relative value to control group as 100), Average value", "setting": "plasma active GLP-1; Experiment 1", "value": 206}, {"measurement": "Significant difference (p < 0.05) vs control group, plasma active GLP-1 level", "setting": "plasma active GLP-1; Experiment 1", "value": "Yes"}]}
{"smiles": "CCC(C)C1NC(=O)C(CCC(N)=O)NC1=O", "note": "(stereo not drawn) [compound 182]", "values": [{"measurement": "Significant difference (p < 0.05) vs control group, amount of active GLP-1 secreted", "setting": "NCI-H716 cells; Experiment 4, 10 mM", "value": "Yes"}, {"measurement": "Amount of active GLP-1 secreted (relative value to control group as 100), Average value", "setting": "NCI-H716 cells; [2]", "value": 445}, {"measurement": "Plasma active GLP-1 level (relative value to control group as 100), Average value", "setting": "plasma active GLP-1; Experiment 2", "value": 188}, {"measurement": "Significant difference (p < 0.05) vs control group, plasma active GLP-1 level", "setting": "plasma active GLP-1; Experiment 2", "value": "Yes"}]}
{"smiles": "C[C@@H]1NC(=O)C2CCCN2C1=O", "note": "(stereo partly drawn) [compound 187]", "values": [{"measurement": "Significant difference (p < 0.05) vs control group, amount of active GLP-1 secreted", "setting": "NCI-H716 cells; Experiment 4, 10 mM", "value": "Yes"}, {"measurement": "Amount of active GLP-1 secreted (relative value to control group as 100), Average value", "setting": "NCI-H716 cells; [2]", "value": 1186}, {"measurement": "Plasma active GLP-1 level (relative value to control group as 100), Average value", "setting": "plasma active GLP-1; Experiment 2", "value": 217}, {"measurement": "Significant difference (p < 0.05) vs control group, plasma active GLP-1 level", "setting": "plasma active GLP-1; Experiment 2", "value": "Yes"}]}
{"smiles": "NC(=O)CCC1NC(=O)C(Cc2c[nH]cn2)NC1=O", "note": "(stereo not drawn) [compound 191]", "values": [{"measurement": "Significant difference (p < 0.05) vs control group, amount of active GLP-1 secreted", "setting": "NCI-H716 cells; Experiment 4, 10 mM", "value": "Yes"}, {"measurement": "Amount of active GLP-1 secreted (relative value to control group as 100), Average value", "setting": "NCI-H716 cells; [2]", "value": 743}, {"measurement": "Plasma active GLP-1 level (relative value to control group as 100), Average value", "setting": "plasma active GLP-1; Experiment 2", "value": 247}, {"measurement": "Significant difference (p < 0.05) vs control group, plasma active GLP-1 level", "setting": "plasma active GLP-1; Experiment 2", "value": "Yes"}]}
{"smiles": "O=C(O)CC1NC(=O)C(CO)NC1=O", "note": "(stereo not drawn) [compound 193]", "values": [{"measurement": "Significant difference (p < 0.05) vs control group, amount of active GLP-1 secreted", "setting": "NCI-H716 cells; Experiment 4, 10 mM", "value": "Yes"}, {"measurement": "Amount of active GLP-1 secreted (relative value to control group as 100), Average value", "setting": "NCI-H716 cells; [2]", "value": 509}, {"measurement": "Plasma active GLP-1 level (relative value to control group as 100), Average value", "setting": "plasma active GLP-1; Experiment 2", "value": 266}, {"measurement": "Significant difference (p < 0.05) vs control group, plasma active GLP-1 level", "setting": "plasma active GLP-1; Experiment 2", "value": "Yes"}]}
{"smiles": "CC(C)C1NC(=O)C(CCCNC(=N)N)NC1=O", "note": "(stereo not drawn) [compound 194]", "values": [{"measurement": "Significant difference (p < 0.05) vs control group, amount of active GLP-1 secreted", "setting": "NCI-H716 cells; Experiment 4, 10 mM", "value": "Yes"}, {"measurement": "Amount of active GLP-1 secreted (relative value to control group as 100), Average value", "setting": "NCI-H716 cells; [2]", "value": 498}, {"measurement": "Plasma active GLP-1 level (relative value to control group as 100), Average value", "setting": "plasma active GLP-1; Experiment 2", "value": 237}, {"measurement": "Significant difference (p < 0.05) vs control group, plasma active GLP-1 level", "setting": "plasma active GLP-1; Experiment 2", "value": "Yes"}]}
{"smiles": "CSCCC1NC(=O)C(CCCNC(=N)N)NC1=O", "note": "(stereo not drawn) [compound 199]", "values": [{"measurement": "Significant difference (p < 0.05) vs control group, amount of active GLP-1 secreted", "setting": "NCI-H716 cells; Experiment 4, 10 mM", "value": "Yes"}, {"measurement": "Amount of active GLP-1 secreted (relative value to control group as 100), Average value", "setting": "NCI-H716 cells; [2]", "value": 652}, {"measurement": "Plasma active GLP-1 level (relative value to control group as 100), Average value", "setting": "plasma active GLP-1; Experiment 2", "value": 217}, {"measurement": "Significant difference (p < 0.05) vs control group, plasma active GLP-1 level", "setting": "plasma active GLP-1; Experiment 2", "value": "Yes"}]}
